These results are taken from US8524755B2 (priority 2009, dated 2013).

SMILES strings stand for the structures.

The target in test [1] is T1, Corticotropin Releasing Factor CRF1 (h) (Homo sapiens, UniProt P34998).
T1 construct: expressed in transfected cells; host or cells: CHO cells
T1 sequence (P34998 24-415): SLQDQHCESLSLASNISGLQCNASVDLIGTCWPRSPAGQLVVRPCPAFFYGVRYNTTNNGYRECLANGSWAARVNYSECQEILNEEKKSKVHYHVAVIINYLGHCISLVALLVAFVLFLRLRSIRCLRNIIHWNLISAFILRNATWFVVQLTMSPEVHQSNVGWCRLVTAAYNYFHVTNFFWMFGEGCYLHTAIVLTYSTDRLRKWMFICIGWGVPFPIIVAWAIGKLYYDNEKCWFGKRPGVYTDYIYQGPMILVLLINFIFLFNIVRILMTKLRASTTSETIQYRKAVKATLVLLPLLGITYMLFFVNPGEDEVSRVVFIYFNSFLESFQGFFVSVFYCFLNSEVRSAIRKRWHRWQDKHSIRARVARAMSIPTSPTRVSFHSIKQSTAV
Put plainly: Binding CRF1 (h) (ag). As to conditions: read-out: % Inhibition of Control Specific Binding @ 10 μM. Here is the method: (§1) Radioligand binding assay methods utilized to measure the activity of compounds of the invention will be familiar to those skilled in the art. In each assay case, the assay components such as, for example, the cell-type, ligand, reference compound and the like, will be familiar to practitioners of such an assay.
(§2) Analysis and Expression of Results: Compounds of the invention were tested in the biochemical assays and percent inhibition of specific binding was determined. The specific ligand binding to the receptors is defined as the difference between the total binding and the nonspecific binding determined in the presence of an excess of unlabelled ligand. The results are expressed as a percent inhibition of control specific binding (100−((measured specific binding/control specific binding)×100)) obtained in the presence of test compounds.

A further test deals with T2, Dopamine D3 (h) (Homo sapiens, UniProt P35462).
T2 construct: expressed in transfected cells; host or cells: CHO cells
Put plainly: Binding D3 (h) (aa). As to conditions: read-out: % Inhibition of Control Specific Binding @ 10 μM. How it is done: as §1, §2

In the next test the target is T3, Histamine H3 (h) (Homo sapiens, UniProt Q9Y5N1).
T3 construct: expressed in transfected cells; host or cells: CHO cells
Put plainly: Binding H3 (h) (ag). As to conditions: read-out: % Inhibition of Control Specific Binding @ 10 μM. How it is done:
as §1, §2

The target in the next test is T4, GnRH (LH-RH) (Rattus norvegicus, UniProt P30969).
T4 construct: rat pituitary gland; from tissue; host or cells: rat pituitary gland
T4 sequence (P30969 1-327): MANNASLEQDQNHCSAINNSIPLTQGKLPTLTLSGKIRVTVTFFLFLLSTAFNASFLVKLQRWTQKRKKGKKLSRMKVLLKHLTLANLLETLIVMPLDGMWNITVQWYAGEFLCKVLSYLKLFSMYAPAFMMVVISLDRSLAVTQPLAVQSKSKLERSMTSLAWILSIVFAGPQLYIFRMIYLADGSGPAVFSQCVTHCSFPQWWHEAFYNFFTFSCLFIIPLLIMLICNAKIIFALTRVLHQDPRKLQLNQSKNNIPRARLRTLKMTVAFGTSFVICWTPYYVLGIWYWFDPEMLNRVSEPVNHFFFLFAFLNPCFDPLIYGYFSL
The test can be described thus: Binding GnRH (LH-RH) (ag). The following applies: read-out: % Inhibition of Control Specific Binding @ 10 μM. How it is done: as §1, §2

The next test has as its target T5, Melanocortin MC4 (h) (Homo sapiens, UniProt P32245).
T5 construct: expressed in transfected cells; host or cells: CHO cells
Put plainly: Binding MC4 (h) (ag). The following applies: read-out: % Inhibition of Control Specific Binding @ 10 μM. How it is done:
as §1, §2

For a further test, the system named is Muscarinic M (ns). Put plainly: Binding M (ns) (aa). More on the design: species or system rat. How it is done:
as §1, §2

Another test deals with opioid (ns). The test can be described thus: Binding opioid (ns) (aa). Set-up: species or system rat. How it is done:
as §1, §2

The next test concerns Thyroid hormone TR (TH). Put plainly: Binding TR (TH) (ag). More on the design: species or system rat. How it is done: as §1, §2
Test [2] has as its system Cl^− channel (GABA-gated). The test can be described thus: Binding Cl− channel (GABA-gated) (aa). More on the design: species or system rat. Here is the method:
as §1, §2

T2 sequence (P35462 whole entry): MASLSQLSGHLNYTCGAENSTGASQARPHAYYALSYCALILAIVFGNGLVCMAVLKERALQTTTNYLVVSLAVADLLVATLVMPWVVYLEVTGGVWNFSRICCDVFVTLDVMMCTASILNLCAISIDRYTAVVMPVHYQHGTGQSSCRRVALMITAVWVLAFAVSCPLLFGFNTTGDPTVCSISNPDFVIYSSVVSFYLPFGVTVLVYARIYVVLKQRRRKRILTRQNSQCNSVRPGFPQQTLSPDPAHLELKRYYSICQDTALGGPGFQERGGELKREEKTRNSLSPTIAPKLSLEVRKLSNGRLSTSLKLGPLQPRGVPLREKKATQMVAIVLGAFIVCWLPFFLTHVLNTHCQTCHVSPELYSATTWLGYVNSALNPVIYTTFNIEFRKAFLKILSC
T3 sequence (Q9Y5N1 whole entry): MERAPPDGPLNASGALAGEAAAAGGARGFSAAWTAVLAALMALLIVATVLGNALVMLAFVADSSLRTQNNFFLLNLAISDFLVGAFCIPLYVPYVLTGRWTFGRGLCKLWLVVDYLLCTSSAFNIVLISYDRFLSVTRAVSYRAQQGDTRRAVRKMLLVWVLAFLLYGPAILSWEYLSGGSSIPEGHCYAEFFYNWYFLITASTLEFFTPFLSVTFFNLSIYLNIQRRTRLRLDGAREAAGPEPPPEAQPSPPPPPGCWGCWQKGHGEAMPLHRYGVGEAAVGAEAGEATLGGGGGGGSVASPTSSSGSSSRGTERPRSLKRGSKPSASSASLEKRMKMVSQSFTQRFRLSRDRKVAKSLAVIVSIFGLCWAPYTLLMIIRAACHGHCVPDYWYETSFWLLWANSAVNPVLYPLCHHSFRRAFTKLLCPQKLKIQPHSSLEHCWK
T5 sequence (P32245 whole entry): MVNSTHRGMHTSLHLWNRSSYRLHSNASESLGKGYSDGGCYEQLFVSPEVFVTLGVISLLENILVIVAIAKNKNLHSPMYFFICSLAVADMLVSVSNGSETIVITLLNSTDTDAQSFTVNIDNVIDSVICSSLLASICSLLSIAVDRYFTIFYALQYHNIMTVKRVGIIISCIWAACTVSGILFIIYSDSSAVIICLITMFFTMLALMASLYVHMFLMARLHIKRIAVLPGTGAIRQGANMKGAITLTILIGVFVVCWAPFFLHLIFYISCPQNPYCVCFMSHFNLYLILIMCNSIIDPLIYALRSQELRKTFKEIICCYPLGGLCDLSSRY

As to `CC1(C)C(=O)N(c2ccc(C#N)c(C(F)(F)F)c2)C(=O)N1c1ccc(C(N)=O)c(F)c1` [(MIII), 4-(3-(4-cyano-3-(trifluoromethyl)phenyl)-5,5-dimethyl-2,4-dioxoimidazolidin-1-yl)-2-fluorobenzamide], the inhibition at 10 µM was -9% in [1]; 0% on Dopamine D3 (h); -13% at Histamine H3 (h); 5% at GnRH (LH-RH); -11% on Melanocortin MC4 (h). The “% Inhibition of Control Specific Binding @ 10 μM” value (“% Inhibition” for short) was 20% in the test on Muscarinic M (ns), −15% with opioid (ns), −9% with Thyroid hormone TR (TH) and 38% in test [2].
Regarding `CNC(=O)c1ccc(N2C(=O)N(c3ccc(C#N)c(C(F)(F)F)c3)C(=O)C2(C)C)cc1F` [(MIV), 4-(3-(4-cyano-3-(trifluoromethyl)phenyl)-5,5-dimethyl-2,4-dioxoimidazolidin-1-yl)-2-fluoro-N-methylbenzamide], the inhibition at 10 µM in test [1] was -23%; on Dopamine D3 (h), 7%; on Histamine H3 (h), -4%; at GnRH (LH-RH), 0%; on Melanocortin MC4 (h), -15%. For the same compound, the “% Inhibition” value in the test on Muscarinic M (ns) is 25%; in the test on opioid (ns) it was −10%; with Thyroid hormone TR (TH), −2%; in [2], 36%.
As to `CC1(C)C(=O)N(c2ccc(C#N)c(C(F)(F)F)c2)C(=S)N1c1ccc(C(N)=O)c(F)c1` [(MII), 4-(3-(4-Cyano-3-(trifluoromethyl)phenyl)-5,5-dimethyl-4-oxo-2-thioxoimidazolidin-1-yl)-2-fluorobenzamide], the inhibition at 10 µM in test [1] is 1%; at Dopamine D3 (h) it was 11%; on Histamine H3 (h) it was -2%; at GnRH (LH-RH) it was -51%; on Melanocortin MC4 (h) it was -25%. The “% Inhibition” value is listed as 1% in the test with Muscarinic M (ns), −14% in the test on opioid (ns), 0% with Thyroid hormone TR (TH) and 81% in test [2].
In the case of `CC1(C)C(=O)N(c2ccc(C#N)c(C(F)(F)F)c2)C(=S)N1c1ccc(C(=O)O)c(F)c1` [(MI), 4-(3-(4-cyano-3-(trifluoromethyl)phenyl)-5,5-dimethyl-4-oxo-2-thioxoimidazolidin-1-yl)-2-fluorobenzoic acid], the inhibition at 10 µM in test [1] is -4%; at Dopamine D3 (h) it was 7%; on Histamine H3 (h), -3%; on GnRH (LH-RH) it was -21%; at Melanocortin MC4 (h) it was -23%. Also, the “% Inhibition” value was 18% in the test on Muscarinic M (ns), −6% in the test on opioid (ns), −7% in the test with Thyroid hormone TR (TH) and 47% in test [2].

By inhibition is commonly meant the relative decrease from the control value, in per cent.
